From US9827228B2, “Opioid receptor modulators and use thereof” (priority 2015, dated 2017) come the findings set out here.

Where two headings read alike, the source gives them in different places.

For one assay, the target named is T1, hMOR (Homo sapiens, UniProt P35372).
T1 construct: host or cells: CHO-K1
Briefly: cell-based. As to conditions: for AUC: AUC of [Ca2+]i fluorescence. The class given is cell-based. As to the method:
Chinese hamster ovary (CHO)-K1 cells expressing hMOR and Gα15 (CHO-K1/MOR/Gα15) were cultured in F12 medium (GIBCO) supplemented with 10 μg/mL Hygromycin B (Invivogen), 20 μg/mL Zeocin (Invivogen) and P/S/F (100 units/mL penicillin, 100 μg/mL streptomycin, 10% fetal bovine serum). The cultures were incubated at 37° C. in a humidified 5% CO2 incubator.
One day prior to running the assay, CORNING® black 96-well assay plates having a clear flat bottom were coated with a 0.1 mg/mL Poly-L-Lysine solution. CHO-K1/MOR/Gα15 cells were suspended in F12 medium and plated at a density of about 8×10^4 cells/well in 200 μL medium. Cells were incubated under a humidified atmosphere of 10% CO2 at 37° C. overnight to reach an 80-90% confluent cell monolayer before the assay. On the day of the assay, 150 μL medium was removed from each well of the plates. To each well were added FLIPR® calcium assay reagents (Molecular Devices Corporation, Sunnyvale, Calif., USA; 50 μL) dissolved in 1× assay buffer (HBSS: KCl 5 mM, KH2PO4 0.3 mM, NaCl 138 mM, NaHCO3 4 mM, Na2HPO4 0.3 mM, d-glucose 5.6 mM, with additional 20 mM HEPES and […], pH 7.4) and 2.5 mM probenecid. After incubation at 37° C. for 1 hour, a test compound, alone or together with naloxone (a MOR antagonist), was also added to each well. Using a FlexStationlll instrument (Molecular Devices Corp.), increments of the [Ca^2+]i fluorescence after robotic injection of the cell suspension were monitored at 1.52 s intervals using the excitation wavelength of 485 nm and the emission wavelength of 525 nm. The [Ca^2+]i fluorescence was measured up to 90 s after the injection. The fluorescence intensity from 6 to 12 wells of cells were averaged and the relative amount of [Ca^2+]i release was determined by integrating the AUC of the [Ca^2+]i fluorescence averages.
A CHO-K1 cell line expressing MOR and Gα15 (GenScript) was used to set up a sensitive high-throughput screen (HTS) system. […] The HTS was performed in the absence or presence of naloxone (an opioid antagonist; 20 nM), to identify AAMs.

A further assay concerns B6 mice. Briefly: Tail-flick test. As to conditions: for AUC of inhibition of the tail-flick response: 0-180 min. The assay is classed as in vivo. As to the method: Male wild-type B6 mice (25-30 g) were kept in a temperature-controlled animal room with a 12-h light/dark cycle. The protocol was approved by the Institutional Animal Care and Use Committee of the National Health Research Institutes, Taiwan. Animal experiments were carried out in accordance with the Policies on the Use of Animals in Neuroscience Research and the ethical guidelines for investigations of experimental pain in conscious animals, International Association for the Study of Pain.
Tail-Flick Analgesia Meter (Columbia Instruments, Trussville, Ala., USA) was used to measure the tail-flick latencies of mice. The cut-off time for each measurement was 10 s to avoid tissue damage. Basal latencies (in seconds) were recorded before treatment and test latencies (also in seconds) were recorded at 30, 60, 90, 120, and 180 minutes after an intravenous injection of compounds. Time-response curves from compounds at various concentrations were obtained for anti-nociceptive effects occurring between 0 and 180 minutes. The AUC values corresponding to the various concentrations were also calculated. The anti-nociceptive effects were quantitatively calculated by substracting the basal latency from the test latency. An ED50 value was determined by an up-and-down method reported in Crocker et al., Pharmacol Biochem Behav, 1984, 21, 133-136.
To investigate whether AAMs could change the innate character of MOR to be activated by naloxone in vivo, tail-flick tests after acute treatment were performed. […] Unexpectedly, in mice injected only with the vehicle not containing naloxone, no anti-nociception effect was observed even with the highest dose of Compound 1 at 100 mg/kg. These in vivo results again indicate that Compound 1 served as an AAM of the MOR.

The mark [1] stands for this setting: combined with naloxone, CHO-K1/MOR/Gα15 cells.
Where [2] appears, read: combined with naloxone, CHO-K1/MOR/Gα15 cells, read-out: EC50.

T1 sequence (P35372 whole entry): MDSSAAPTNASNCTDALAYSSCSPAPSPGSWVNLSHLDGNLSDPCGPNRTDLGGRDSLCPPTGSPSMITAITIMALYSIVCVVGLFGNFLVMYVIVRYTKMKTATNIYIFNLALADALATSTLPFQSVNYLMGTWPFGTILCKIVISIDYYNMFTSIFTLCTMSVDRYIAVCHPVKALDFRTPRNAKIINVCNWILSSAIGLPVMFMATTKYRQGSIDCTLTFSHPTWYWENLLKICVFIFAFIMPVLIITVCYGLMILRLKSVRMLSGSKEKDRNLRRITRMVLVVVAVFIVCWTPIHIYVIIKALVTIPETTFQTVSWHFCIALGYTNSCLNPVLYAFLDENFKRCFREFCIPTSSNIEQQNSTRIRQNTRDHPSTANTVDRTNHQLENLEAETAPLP

Turning to `CCc1ccccc1Nc1nc(-c2sc(C)nc2C)cs1` [Compound 1, N-(2-Ethylphenyl)-2′,4′-dimethyl-4,5′-bi-1,3-thiazol-2-amine], on hMOR (setting [1]), the AUC entry is “+ (+: >5000)”. The EC50 on hMOR (EC50, combined with naloxone) is less than 10 µM; at hMOR (EC50, combined with naloxone (20 nM)) it was 4 µM; at hMOR (EC50, combined with naloxone, CHO-K1/MOR/Gα15 cells), 3 to 10 µM. Moreover, the “effect on Emax and potency of naloxone” value on hMOR (concentration-response curves of naloxone at several concentrations of Compound 1) is “both Emax and potency of naloxone were altered”. The calcium release result at hMOR (in the presence of naloxone) is reported as “significant calcium release”. Moreover, the “PAM or NAM effect: Emax and potency of morphine” value on hMOR (morphine with Compound 1 at 30, 10, or 3.3 μM) is given as “neither Emax nor potency of morphine was significantly altered”. Also, in the assay on B6 mice (Compound 1 alone at 25, 50, or 100 mg/kg (i.v.), B6 mice), the anti-nociceptive effect entry is “did not produce any anti-nociceptive effect”. The entries for the “AUC of inhibition of the tail-flick response” value with B6 mice (Compound 1 at 25 mg/kg (i.v.) with naloxone at 10 mg/kg), in the assay on B6 mice (Compound 1 at 50 mg/kg (i.v.) with naloxone at 10 mg/kg) and in the assay on B6 mice (Compound 1 at 100 mg/kg (i.v.) with naloxone at 10 mg/kg) were 114.8±26 min×s, 159.8±60 min×s and 384±87 min×s, respectively.
As for `Cc1csc(Nc2nc(-c3sc(C)nc3C)cs2)n1` [Compound 114, 2′,4′-Dimethyl-N-(4-methyl-1,3-thiazol-2-yl)-4,5′-bi-1,3-thiazol-2-amine], on hMOR (setting [1]), the AUC entry is “− (−: <5000)”. On hMOR (setting [2]), the EC50 was more than 10 µM.
For `Cc1nc(C)c(-c2csc(Nc3nc4ccccc4s3)n2)s1` [Compound 117, N-(1,3-Benzothiazol-2-yl)-2′,4′-dimethyl-4,5′-bi-1,3-thiazol-2-amine] the same measures were “− (−: <5000)” and more than 10 µM.
Regarding `CCc1ccccc1Nc1nc(-c2ccc(C)cc2C)cs1` [Compound 120, 4-(2,4-Dimethylphenyl)-N-(2-ethylphenyl)-1,3-thiazol-2-amine], the AUC result on hMOR (setting [1]) is “− (−: <5000)”. At hMOR (setting [2]), the EC50 was more than 10 µM.
For `CCc1ccccc1Nc1nc(-c2ccc(C)cc2)cs1` [Compound 121, N-(2-Ethylphenyl)-4-(4-methylphenyl)-1,3-thiazol-2-amine] the same measures were “− (−: <5000)” and more than 10 µM.
With `CCc1ccccc1Nc1nc(-c2ccc3c(c2)OCCCO3)cs1` [Compound 122, 4-(3,4-Dihydro-2H-1,5-benzodioxepin-7-yl)-N-(2-ethylphenyl)-1,3-thiazol-2-amine], at hMOR (setting [1]), the AUC result is reported as “− (−: <5000)”. The EC50 on hMOR (setting [2]) is more than 10 µM.
`CCc1ccccc1Nc1nc(-c2ccccn2)cs1` [Compound 123, N-(2-Ethylphenyl)-4-(2-pyridinyl)-1,3-thiazol-2-amine]: the AUC entry on hMOR (setting [1]) is recorded as “− (−: <5000)”. For the same molecule, the concentration giving a half-maximal response (EC50) at hMOR (setting [2]) was more than 10 µM.
Consider `CCc1ccccc1Nc1nc(-c2cccs2)cs1` [Compound 124, N-(2-Ethylphenyl)-4-(2-thiophenyl)-1,3-thiazol-2-amine], for which the AUC entry on hMOR (setting [1]) is given as “− (−: <5000)”. Besides, the EC50 on hMOR (setting [2]) was more than 10 µM.
For the molecule `CCc1ccccc1Nc1nc(-c2nccs2)cs1` [Compound 126, N-(2-Ethylphenyl)-2,4′-bi-1,3-thiazol-2′-amine], the AUC entry on hMOR (setting [1]) is reported as “− (−: <5000)”. Also, the EC50 at hMOR (setting [2]) is more than 10 µM.
For the molecule `CCc1ccccc1Nc1nc2c(s1)Cc1ccccc1-2` [Compound 127, N-(2-Ethylphenyl)-8H-indeno[1,2-d][1,3]thiazol-2-amine], the AUC entry on hMOR (setting [1]) is “− (−: <5000)”. Moreover, the EC50 on hMOR (setting [2]) is more than 10 µM.
Take `CCOC(=O)c1cc(-c2csc(Nc3ccccc3CC)n2)on1` [Compound 128, Ethyl 5-{2-[(2-ethylphenyl)amino]-1,3-thiazol-4-yl}-1,2-oxazole-3-carboxylate]: at hMOR (setting [1]), the AUC result is on record as “− (−: <5000)”. For the same molecule, at hMOR (setting [2]), the EC50 is more than 10 µM.
`CCc1ccccc1Nc1nc(-c2cc(-c3ccccc3)no2)cs1` [Compound 129, N-(2-Ethylphenyl)-4-(3-phenyl-1,2-oxazol-5-yl)-1,3-thiazol-2-amine]: the AUC entry on hMOR (setting [1]) is given as “− (−: <5000)”. For the same molecule, the EC50 on hMOR (setting [2]) is more than 10 µM.
`Cc1nc(C)c(-c2csc(N)n2)s1` [Compound 130, 2′,4′-Dimethyl-4,5′-bi-1,3-thiazol-2-amine]: the AUC result at hMOR (setting [1]) is “− (−: <5000)”. Besides, the EC50 on hMOR (setting [2]) is more than 10 µM.
For the molecule `CCc1ccccc1Nc1nccs1` [Compound 131, N-(2-Ethylphenyl)-1,3-thiazol-2-amine], the AUC result on hMOR (setting [1]) is given as “− (−: <5000)”. Besides, the EC50 on hMOR (setting [2]) is more than 10 µM.
In the case of `CCc1ccccc1Nc1nc(C)cs1` [Compound 132, N-(2-Ethylphenyl)-4-methyl-1,3-thiazol-2-amine], the AUC result on hMOR (setting [1]) is “− (−: <5000)”. For the same molecule, the EC50 on hMOR (setting [2]) was more than 10 µM.
Take `C=CCN1CC[C@]23c4c5ccc(O)c4O[C@H]2C(=O)CC[C@@]3(O)[C@H]1C5` [naloxone, reference compound]: in the assay with B6 mice (Mus musculus, mice injected with Compound 1 at 100 mg/kg, read-out: ED50 in inhibiting the tail-flick response), the ED50 was found to be 17.5 ± 4 mg/kg.
